The compounds below were run on Hedgehog pathway (assay: Hedgehog Pathway Cellular Differentiation Assay (alkaline phosphatase production in C3H10T1/2 cells with Shh ligand)). Settings: Mus musculus, C3H 10T1/2, 3 μM compound, Shh ligand conditioned media, 72 h, alkaline phosphatase.
Type: cell-based
Experimental: Hedgehog Pathway Cellular Differentiation Assay The ability of compounds of the invention to inhibit the Hedgehog pathway can be determined by the following cell differentiation assay. C3H10T1/2 cells were plated into 384 well plates at a concentration of 5000 cells/well in DMEM/10% FBS. The following day the media was changed to 20% conditioned media (low serum media DMEM/2% FBS+Shh ligand). Compounds were solubilized in 100% DMSO to a concentration of 10 mM and then serially diluted three fold in 100% DMSO. The highest concentration in the cell plate was 30 μM and the lowest was 3 nM. The compounds were then added to the cells. Cell plates were incubated with the compound for 72 h and then assayed for alkaline phosphatase production using pNp as a substrate. Briefly, after 72 h of incubation, the media was aspirated from the cells and washed with 30 μl of PBS. PBS was aspirated off the cells and 15 μl of 1×RIPA cell lysis buffer is added on to the cells. The cell plates are then incubated at −80° C. for 30 minutes to insure proper cell lysis. The plates were then thawed back to RT. The substrate solution containing pNp at 1 mg/mL in diethanolamine buffer pH 9.8 was then added onto the lysed cells. The plates were incubated at 30° C. for color development and read at an absorbance of 405 nm. The percent inhibition and IC50 value was then calculated from the absorbance data using standard procedures.

SMILES	inhibition at 3 µM [%]
Cc1ccc(-c2ncc(C(F)(F)F)[nH]2)cc1NC(=O)c1ccc(OCc2ccccn2)cc1 [Example 28, N-{2-methyl-5-[5-(trifluoromethyl)-1H-imidazol-2-yl]phenyl}-4-(pyridin-2-ylmethoxy)benzamide]	91.9
Cc1ccc(-c2cc(C(F)(F)F)n[nH]2)cc1NC(=O)c1ccc(OCc2ccccn2)cc1 [Example 37, N-[2-methyl-5-[5-(trifluoromethyl)-2H-pyrazol-3-yl]phenyl]-4-(pyridin-2-ylmethoxy)benzamide]	38.2
Cc1ccc(-c2ncc[nH]2)cc1NC(=O)c1cccc(N(C)C)c1 [Example 148, 3-dimethylamino-N-[5-(1H-imidazol-2-yl)-2-methyl-phenyl]benzamide]	9.1
Cc1cc(F)c(-c2ncc[nH]2)cc1NC(=O)c1ccc(OCc2ccccn2)cc1 [Example 102, N-[4-fluoro-5-(1H-imidazol-2-yl)-2-methylphenyl]-4-(pyridin-2-ylmethoxy)benzamide]	87.1
Cc1nc(-c2ccc(C)c(NC(=O)c3ccc(OCc4ccccn4)cc3)c2)c[nH]1 [Example 24, N-[2-methyl-5-(2-methyl-1H-imidazol-4-yl)phenyl]-4-(pyridin-2-ylmethoxy)benzamide]	81.1
Cc1ccc(-c2ncc[nH]2)cc1NC(=O)c1ccc(C#Cc2ccccn2)cc1 [Example 107, N-[5-(1H-imidazol-2-yl)-2-methylphenyl]-4-(pyridin-2-ylethynyl)benzamide]	92.3
Cc1ccc(-c2ncc[nH]2)cc1NC(=O)c1ccc(OCc2cccc(N(C)C)n2)cc1 [Example 125, N-(5-(1H-imidazol-2-yl)-2-methylphenyl)-4-((6-(dimethylamino)pyridin-2-yl)methoxy)benzamide]	76.7
Cc1ccc(-c2nccs2)cc1NC(=O)c1ccc(OCc2ccccn2)cc1 [Example 16, N-(2-methyl-5-1,3-thiazol-2-yl-phenyl)-4-(pyridin-2-ylmethoxy)benzamide]	68.6
Cc1ccc(-c2nccn2C)cc1NC(=O)c1ccc(OCc2ccccn2)cc1 [Example 13, N-[2-methyl-5-(1-methylimidazol-2-yl)phenyl]-4-(pyridin-2-ylmethoxy)benzamide]	64.9
Cc1ccc(-c2nccn2C)cc1NC(=O)c1ccc(OCc2cc(N3CCN(C)CC3)ccc2C#N)cc1 [Example 115, 4-(2-cyano-5-(4-methylpiperazin-1-yl)benzyloxy)-N-(2-methyl-5-(1-methyl-1H-imidazol-2-yl)phenyl)benzamide]	82.8
Cc1ccc(-c2ncc[nH]2)cc1NC(=O)c1ccc(OCc2ccccn2)nc1 [Example 111, N-[5-(1H-imidazol-2-yl)-2-methylphenyl]-6-(pyridin-2-ylmethoxy)pyridine-3-carboxamide]	-0.1
COc1ccccc1COc1ccc(C(=O)Nc2cc(-c3ncc[nH]3)ccc2C)cc1 [Example 63, N-[5-(1H-imidazol-2-yl)-2-methylphenyl]-4-[(2-methoxybenzyl)oxy]benzamide]	79.8
COc1ccnc(COc2ccc(C(=O)Nc3cc(-c4ncc[nH]4)ccc3C)cc2)c1OC [Example 56, 4-[(3,4-dimethoxypyridin-2-yl)methoxy]-N-[5-(1H-imidazol-2-yl)-2-methylphenyl]benzamide]	67.4
CNCc1c(-c2ccc(C)c(NC(=O)c3ccc(OCc4ccccn4)cc3)c2)ncn1C [Example 80, N-(2-methyl-5-{1-methyl-5-[(methylamino)methyl]-1H-imidazol-4-yl}phenyl)-4-(pyridin-2-ylmethoxy)benzamide]	57.1
Cc1ccc(-c2nc(-c3ccc(N4CCCC4)cc3)c[nH]2)cc1NC(=O)c1ccc(OCc2ccccn2)cc1 [Example 83, N-{2-methyl-5-[4-(4-pyrrolidin-1-ylphenyl)-1H-imidazol-2-yl]phenyl}-4-(pyridin-2-ylmethoxy)benzamide]	15.1
Cc1ccc(-c2cccnc2)cc1NC(=O)c1ccc(OCc2ccccn2)cc1 [Example 7, N-(2-methyl-5-pyridin-3-yl-phenyl)-4-(pyridin-2-ylmethoxy)benzamide]	70.8
Cc1ccc(-c2ncc[nH]2)cc1NC(=O)c1ccc(OCC2CCCCN2)cc1 (stereo not drawn) [Example 142, N-(5-(1H-imidazol-2-yl)-2-methylphenyl)-4-(piperidin-2-ylmethoxy)benzamide]	31.3
COc1cc(COc2ccc(C(=O)Nc3cc(-c4ncc[nH]4)ccc3C)cc2)cc(OC)c1 [Example 47, 4-[(3,5-dimethoxyphenyl)methoxy]-N-[5-(1H-imidazol-2-yl)-2-methyl-phenyl]benzamide]	80.9

SMILES	inhibition at 3 µM [%]
Cc1ccc(-c2cn(C)c(C)n2)cc1NC(=O)c1ccc(OCc2ccccn2)cc1 [Example 156, N-[5-(1,2-dimethyl-1H-imidazol-4-yl)-2-methylphenyl]-4-(pyridin-2-ylmethoxy)benzamide]	86.2
COc1cc(COc2ccc(C(=O)Nc3cc(-c4ncc(C)n4C)ccc3C)cc2)cc(OC)c1 [Example 48, 4-[(3,5-dimethoxyphenyl)methoxy]-N-[5-(1,5-dimethylimidazol-2-yl)-2-methyl-phenyl]benzamide]	81.5
Cc1ccc(-c2c(C)nn(C)c2C)cc1NC(=O)c1ccc(OCc2ccccn2)cc1 [Example 35, N-[2-methyl-5-(1,3,5-trimethylpyrazol-4-yl)phenyl]-4-(pyridin-2-ylmethoxy)benzamide]	76.8
Cc1cc(Cl)c(-c2nccn2C)cc1NC(=O)c1ccc(OCc2ccccn2)cc1 [Example 74, N-[4-chloro-2-methyl-5-(1-methyl-1H-imidazol-2-yl)phenyl]-4-(pyridin-2-ylmethoxy)benzamide]	76.2
Cc1cn(C)c(-c2ccc(C)c(NC(=O)c3ccc(OCc4ccccn4)cc3)c2)n1 [Example 26, N-[5-(1,4-dimethyl-1H-imidazol-2-yl)-2-methylphenyl]-4-(pyridin-2-ylmethoxy)benzamide]	75.7
Cc1ccc(-c2cn(C)cn2)cc1NC(=O)c1ccc(OCc2ccccc2C#N)cc1 [Example 53, 4-[(2-cyanophenyl)methoxy]-N-[2-methyl-5-(1-methylimidazol-4-yl)phenyl]benzamide]	80.4
Cc1ccc(-c2ncc[nH]2)cc1NC(=O)c1ccc(OCc2ccccc2C(F)(F)F)cc1 [Example 64, N-[5-(1H-imidazol-2-yl)-2-methylphenyl]-4-{[2-(trifluoromethyl)benzyl]oxy}benzamide]	79.6
Cc1ccc(-c2ncc[nH]2)cc1NC(=O)c1ccc(OCc2ncccc2C#N)cc1 [Example 136, N-(5-(1H-imidazol-2-yl)-2-methylphenyl)-4-((3-cyanopyridin-2-yl)methoxy)benzamide]	77
Cc1cc(Cl)c(-c2cn(C)c(C)n2)cc1NC(=O)c1ccc(OCc2ccccn2)cc1 [Example 77, N-[4-chloro-5-(1,2-dimethyl-1H-imidazol-4-yl)-2-methylphenyl]-4-(pyridin-2-ylmethoxy)benzamide]	86.1
Cc1cc(C)c(-c2ncc[nH]2)cc1NC(=O)c1ccc(OCc2ccccn2)cc1 [Example 67, N-[5-(1H-imidazol-2-yl)-2,4-dimethylphenyl]-4-(pyridin-2-ylmethoxy)benzamide]	77.1
Cc1ccc(-c2ncc[nH]2)cc1NC(=O)c1ccc(OCc2cc(N3CCN(C)CC3)ccn2)cc1 [Example 126, N-[5-(1H-imidazol-2-yl)-2-methylphenyl]-4-{[4-(4-methylpiperazin-1-yl)pyridin-2-yl]methoxy}benzamide]	47.2
COc1cccc(COc2ccc(C(=O)Nc3cc(-c4ncc[nH]4)ccc3C)cc2)c1 [Example 41, N-(5-(1H-imidazol-2-yl)-2-methylphenyl)-4-(3-methoxybenzyloxy)benzamide]	51.9
Cc1ccc(-c2ncc[nH]2)cc1NC(=O)c1ccc(NCc2ccccn2)cc1 [Example 117, N-(5-(1H-imidazol-2-yl)-2-methylphenyl)-4-(pyridin-2-ylmethylamino)benzamide]	68.8
CCOC(=O)c1sc(-c2ccc(C)c(NC(=O)c3ccc(OCc4ccccn4)cc3)c2)nc1C [Example 19, ethyl 4-methyl-2-[4-methyl-3-[[4-(pyridin-2-ylmethoxy)benzoyl]amino]phenyl]1,3-thiazole-5-carboxylate]	52
Cc1ccc(-c2ncc[nH]2)cc1NC(=O)c1ccc(OCC2CCCCN2C)cc1 (stereo not drawn) [Example 143, N-(5-(1H-imidazol-2-yl)-2-methylphenyl)-4-((1-methylpiperidin-2-yl)methoxy)benzamide]	62.3
O=C(Nc1cc(-c2ncc[nH]2)ccc1Cl)c1ccc(OCc2ccccn2)cc1 [Example 105, N-[2-chloro-5-(1H-imidazol-2-yl)phenyl]-4-(pyridin-2-ylmethoxy)benzamide]	82.1
Cc1ccc(-c2ncnc3nc[nH]c23)cc1NC(=O)c1ccc(OCc2ccccn2)cc1 [Example 18, N-[2-methyl-5-(7H-purin-6-yl)phenyl]-4-(pyridin-2-ylmethoxy)benzamide]	48.4

Same assay, conditions: Mus musculus, C3H 10T1/2, Shh ligand conditioned media, 72 h, alkaline phosphatase (pNp, 405 nm)

SMILES	IC50 [nM]
Cc1ccc(-c2ncnc3nc[nH]c23)cc1NC(=O)c1ccc(OCc2ccccn2)cc1 [Example 18, N-[2-methyl-5-(7H-purin-6-yl)phenyl]-4-(pyridin-2-ylmethoxy)benzamide]	30

Source: patent US20100311748A1, “HETEROCYCLIC AMIDES USEFUL FOR THE TREATMENT OF CANCER AND PSORIASIS” (ASTRAZENECA AB, priority 2007, published 2010)
